Reference: patent US20250154138A1, “Small Molecule IL-17A Modulators” (BeiGene, Ltd., priority 2022, published 2025)

Columns and labels:
[1] = molecular target: human IL-17A / human IL-17RA (Homo sapiens (Human), UniProt Q16552); assay: Human IL-17A biochemical assay (HTRF, blocking of IL-17A binding to IL-17RA); conditions: 0.4 nM IL-17A, 0.3 nM IL-17RA, max compound concentration 10 uM
Method in brief: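 HTRF competition: 0.4 nM recombinant human IL-17A pre-incubated 3 h at room temperature with compound (top 10 uM, 2.7-fold, 10 points) in HEPES pH 7.5 buffer, then 0.3 nM IL-17RA added for 1 h, then anti-6His-Tb/anti-human IgG-XL665 detection for 1 h.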

[2] = tested on: IL-17-induced GROα secretion from HT-29 cells; assay: GROα release assay in human colorectal adenocarcinoma epithelial cell (HT-29, ELISA); assay type: cell-based; conditions: Homo sapiens, HT-29, 48 h, 10 ng/mL IL-17A, highest concentration 10 μM, read-out: Cellular assay HT29 cell/CXCL1 IC50
Method in brief: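 HT-29 cells were exposed 48 h at 37°C to IL-17A (final 10 ng/mL) preincubated 15 min with compound (4-fold dilutions, top 10 μM). Secreted GROα was quantified by ELISA against a standard curve, and IC50 obtained by four-parameter fitting.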

Sequence of human IL-17A / human IL-17RA (Q16552 24-155): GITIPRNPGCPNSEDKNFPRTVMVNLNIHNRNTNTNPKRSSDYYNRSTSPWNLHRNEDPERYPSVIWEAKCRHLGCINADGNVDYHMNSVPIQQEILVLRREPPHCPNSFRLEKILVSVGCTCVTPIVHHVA

| Structure (SMILES) | IC50 [1] [nM] | IC50 [2] [nM] |
| --- | --- | --- |
| CNC(=O)C1(N2CC(C3CC3)CNC2=O)Cc2ccc(NC(=O)[C@@H](NC(=O)c3ccnn3C)C3CCCCC3)cc2C1 (stereo partly drawn) [Example 94, N-((1S)-1-cyclohexyl-2-((2-(5-cyclopropyl-2-oxotetrahydropyrimidin-1(2H)-yl)-2-(methylcarbamoyl)-2,3-dihydro-1H-inden-5-yl)amino)-2-oxoethyl)-1-methyl-1H-pyrazole-5-carboxamide] | 40 | 118 |
| CNC(=O)C1(N2CC3(CC3)CNC2=O)Cc2ccc(NC(=O)C(NC(=O)c3nonc3C)C3CCC(C(F)(F)F)CC3)cc2C1 (stereo not drawn) [Example 181, 4-methyl-N-(2-((2-(methylcarbamoyl)-2-(6-oxo-5,7-diazaspiro[2.5]octan-5-yl)-2,3-dihydro-1H-inden-5-yl)amino)-2-oxo-1-(4-(trifluoromethyl)cyclohexyl)ethyl)-1,2,5-oxadiazole-3-carboxamide] | 193 | 154 |
| Cc1nonc1C(=O)N[C@H](C(=O)Nc1ccc2c(c1)CC(C1CCCC1)(N1CC3(CC3)CNC1=O)C2)C(C1CC1)C1CC1 (stereo partly drawn) [Example 230, N-((2S)-1-((2-cyclopentyl-2-(6-oxo-5,7-diazaspiro[2.5]octan-5-yl)-2,3-dihydro-1H-inden-5-yl)amino)-3,3-dicyclopropyl-1-oxopropan-2-yl)-4-methyl-1,2,5-oxadiazole-3-carboxamide] | 4460 | 9470 |
| CC1CN(Cc2cc3cc(NC(=O)[C@@H](NC(=O)c4ccnn4C)C4CCCCC4)ccc3[nH]2)C(=O)N1 (stereo partly drawn) [Example 12, N-((1S)-1-cyclohexyl-2-((2-((4-methyl-2-oxoimidazolidin-1-yl)methyl)-1H-indol-5-yl)amino)-2-oxoethyl)-1-methyl-1H-pyrazole-5-carboxamide] | 13000 | > 10000 |
| CNC(=O)C1(N2C[C@@H](C(C)C)NC2=O)Cc2ccc(NC(=O)[C@@H](NC(=O)c3ccnn3C(C)C)C(C3CC3)C3CC3)cc2C1 (stereo partly drawn) [Example 91, N-((2S)-1,1-dicyclopropyl-3-((2-((R)-4-isopropyl-2-oxoimidazolidin-1-yl)-2-(methylcarbamoyl)-2,3-dihydro-1H-inden-5-yl)amino)-3-oxopropan-2-yl)-1-isopropyl-1H-pyrazole-5-carboxamide] | 71 | 43 |
| COCC1(N2CC(C)NC2=O)Cc2ccc(NC(=O)[C@@H](NC(=O)c3ccnn3C)C3CCCCC3)cc2C1 (stereo partly drawn) [Example 2, N-((1S)-1-cyclohexyl-2-((2-(methoxymethyl)-2-(4-methyl-2-oxoimidazolidin-1-yl)-2,3-dihydro-1H-inden-5-yl)amino)-2-oxoethyl)-1-methyl-1H-pyrazole-5-carboxamide] | 1100 | 2560 |
| CNC(=O)C1(N2C[C@@H](Cc3ccc(F)cc3)NC2=O)Cc2ccc(NC(=O)[C@@H](NC(=O)c3ccnn3C)C3CCCCC3)cc2C1 (stereo partly drawn) [Example 76, N-((1S)-1-cyclohexyl-2-((2-((R)-4-(4-fluorobenzyl)-2-oxoimidazolidin-1-yl)-2-(methylcarbamoyl)-2,3-dihydro-1H-inden-5-yl)amino)-2-oxoethyl)-1-methyl-1H-pyrazole-5-carboxamide] | 90 | 736 |
| CNC(=O)C1(N2C[C@@H](C(C)C)NC2=O)Cc2ccc(NC(=O)[C@@H](NC(=O)c3ccccc3)C3CCCCC3)cc2C1 (stereo partly drawn) [Example 54, 5-((S)-2-benzamido-2-cyclohexylacetamido)-2-((R)-4-isopropyl-2-oxoimidazolidin-1-yl)-N-methyl-2,3-dihydro-1H-indene-2-carboxamide] | 24 | 137 |
| CNC(=O)C1(N2C[C@@H](C(C)C)NC2=O)Cc2ccc(NC(=O)[C@@H](NC(=O)c3ccnn3C)C3CCCCC3)cc2C1 (stereo partly drawn) [Example 39, N-((1S)-1-cyclohexyl-2-((2-((R)-4-isopropyl-2-oxoimidazolidin-1-yl)-2-(methylcarbamoyl)-2,3-dihydro-1H-inden-5-yl)amino)-2-oxoethyl)-1-methyl-1H-pyrazole-5-carboxamide] | 22.6 | 56.4 |
| CNC(=O)C1(N2CC3(CC3)CNC2=O)Cc2ccc(NC(=O)[C@@H](NC(=O)c3nonc3C)C3CCC(F)(F)CC3)cc2C1 (stereo partly drawn) [Example 138, N-((1S)-1-(4,4-difluorocyclohexyl)-2-((2-(methylcarbamoyl)-2-(6-oxo-5,7-diazaspiro[2.5]octan-5-yl)-2,3-dihydro-1H-inden-5-yl)amino)-2-oxoethyl)-4-methyl-1,2,5-oxadiazole-3-carboxamide] | 53.1 | 101 |
| CCC1CCC(C(NC(=O)c2ccnn2C)C(=O)Nc2ccc3c(c2)CC(C(=O)NC)(N2C[C@@H](C(C)C)NC2=O)C3)CC1 (stereo partly drawn) [Example 101, N-(1-(4-ethylcyclohexyl)-2-((2-((R)-4-isopropyl-2-oxoimidazolidin-1-yl)-2-(methylcarbamoyl)-2,3-dihydro-1H-inden-5-yl)amino)-2-oxoethyl)-1-methyl-1H-pyrazole-5-carboxamide] | 7.5 | 45.2 |
| CNC(=O)C1(N2CC3(CC3)CNC2=O)Cc2ccc(NC(=O)[C@@H](NC(=O)C(F)(F)c3cccc(C#N)c3)C3CCCCC3)cc2C1 (stereo partly drawn) [Example 158, 5-((S)-2-(2-(3-cyanophenyl)-2,2-difluoroacetamido)-2-cyclohexylacetamido)-N-methyl-2-(6-oxo-5,7-diazaspiro[2.5]octan-5-yl)-2,3-dihydro-1H-indene-2-carboxamide] | 123 | 48.5 |
| Cn1nccc1C(=O)N[C@H](C(=O)Nc1ccc2c(c1)CC(N1C[C@@H](C(F)(F)F)NC1=O)C2)C1CCCCC1 (stereo partly drawn) [Example 146, N-((1S)-1-cyclohexyl-2-oxo-2-((2-((S)-2-oxo-4-(trifluoromethyl)imidazolidin-1-yl)-2,3-dihydro-1H-inden-5-yl)amino)ethyl)-1-methyl-1H-pyrazole-5-carboxamide] | 204 | 768 |
| CNC(=O)C1(N2C[C@@H](Cc3ccc(OC)cc3)NC2=O)Cc2ccc(NC(=O)[C@@H](NC(=O)c3ccnn3C)C3CCCCC3)cc2C1 (stereo partly drawn) [Example 56, N-((1S)-1-cyclohexyl-2-((2-((R)-4-(4-methoxybenzyl)-2-oxoimidazolidin-1-yl)-2-(methylcarbamoyl)-2,3-dihydro-1H-inden-5-yl)amino)-2-oxoethyl)-1-methyl-1H-pyrazole-5-carboxamide] | 20 | 23.7 |
| CNC(=O)C1(N2C[C@@H](Cc3cccs3)NC2=O)Cc2ccc(NC(=O)[C@@H](NC(=O)c3ccnn3C)C3CCCCC3)cc2C1 (stereo partly drawn) [Example 57, N-((1S)-1-cyclohexyl-2-((2-(methylcarbamoyl)-2-((R)-2-oxo-4-(thiophen-2-ylmethyl)imidazolidin-1-yl)-2,3-dihydro-1H-inden-5-yl)amino)-2-oxoethyl)-1-methyl-1H-pyrazole-5-carboxamide] | 334 | 2150 |
| CNC(=O)C1(N2CC3(CC3)CNC2=O)Cc2ccc(NC(=O)[C@@H](NC(=O)c3ccnn3C)C3CCCCC3)cc2C1 (stereo partly drawn) [Example 102, N-((1S)-1-cyclohexyl-2-((2-(methylcarbamoyl)-2-(6-oxo-5,7-diazaspiro[2.5]octan-5-yl)-2,3-dihydro-1H-inden-5-yl)amino)-2-oxoethyl)-1-methyl-1H-pyrazole-5-carboxamide] | 9.5 | 17.3 |
| Cc1ccccc1NC(=O)C1(N2CC3(CC3)CNC2=O)Cc2ccc(NC(=O)[C@@H](NC(=O)c3nonc3C)C3CCC(F)(F)CC3)cc2C1 (stereo partly drawn) [Example 214, N-((1S)-1-(4,4-difluorocyclohexyl)-2-oxo-2-((2-(6-oxo-5,7-diazaspiro[2.5]octan-5-yl)-2-(o-tolylcarbamoyl)-2,3-dihydro-1H-inden-5-yl)amino)ethyl)-4-methyl-1,2,5-oxadiazole-3-carboxamide] | 37.3 | 102 |
| CNC(=O)C1(N2C[C@@H](C(C)C)NC2=O)Cc2ccc(NC(=O)[C@@H](NC(=O)c3nonc3C)C3CCCCC3)cc2C1 (stereo partly drawn) [Example 40, N-((1S)-1-cyclohexyl-2-((2-((R)-4-isopropyl-2-oxoimidazolidin-1-yl)-2-(methylcarbamoyl)-2,3-dihydro-1H-inden-5-yl)amino)-2-oxoethyl)-4-methyl-1,2,5-oxadiazole-3-carboxamide] | 25 | 143 |
| Cc1nonc1C(=O)N[C@H](C(=O)Nc1ccc2c(c1)CC(C(=O)NC1CC1(F)F)(N1C[C@@H](C(C)C)NC1=O)C2)C(C1CC1)C1CC1 (stereo partly drawn) [Example 273, N-((2S)-1,1-dicyclopropyl-3-((2-((2,2-difluorocyclopropyl)carbamoyl)-2-((R)-4-isopropyl-2-oxoimidazolidin-1-yl)-2,3-dihydro-1H-inden-5-yl)amino)-3-oxopropan-2-yl)-4-methyl-1,2,5-oxadiazole-3-carboxamide] | 34.7 | 66.1 |
| CNC(=O)C1(N2C[C@@H](C(C)C)NC2=O)Cc2ccc(NC(=O)[C@@H](NC(=O)c3ccnn3C)C3CCCC3)cc2C1 (stereo partly drawn) [Example 46, N-((1S)-1-cyclopentyl-2-((2-((R)-4-isopropyl-2-oxoimidazolidin-1-yl)-2-(methylcarbamoyl)-2,3-dihydro-1H-inden-5-yl)amino)-2-oxoethyl)-1-methyl-1H-pyrazole-5-carboxamide] | 260 | 533 |
| Cc1nonc1C(=O)N[C@H](C(=O)Nc1ccc2c(c1)CC(c1ccc(F)cc1)(N1C[C@@H](C(C)C)NC1=O)C2)C(C1CC1)C1CC1 (stereo partly drawn) [Example 251, N-((2S)-1,1-dicyclopropyl-3-((2-(4-fluorophenyl)-2-((R)-4-isopropyl-2-oxoimidazolidin-1-yl)-2,3-dihydro-1H-inden-5-yl)amino)-3-oxopropan-2-yl)-4-methyl-1,2,5-oxadiazole-3-carboxamide] | 1510 | 1510 |
